Molecules are shown by their SMILES.

In patent publication US12018023B2 (NERVIANO MEDICAL SCIENCES S.R.L., priority 2018, dated 2024) one finds IC50 data, which are given here for 13 compounds.

Assay [1] addresses T1, IDH1^R132H homodimer enzyme (Homo sapiens, UniProt O75874, R132H).
T1 construct: purchased not specified
Briefly: NADPH depletion assay, IDH1 R132H. It counts as biochemical. In outline: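 IDH1 R132H enzyme (8 nM as diluted) in Tris-HCl pH 7.6 with 10 mM MgCl2, 0.001% Triton X-100 and 4 mM β-mercaptoethanol is preincubated 15 min at RT with compound. Substrate mix (12 uM NADPH, 3.4 mM α-ketoglutarate) is added for 60 min; remaining NAD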

For assay [2], the target named is T2, IDH1^R132C (Homo sapiens, UniProt O75874, R132C).
T2 construct: purchased not specified
Description: NADPH depletion assay, IDH1 R132C. It is filed as biochemical. The procedure, abridged: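 IDH1 R132C (2 nM) preincubated 15 min at RT with compound in Tris-HCl pH 7.6/MgCl2 buffer, then 60 min RT with NADPH and 0.14 mM alpha-ketoglutarate. Remaining NADPH read by diaphorase/resazurin fluorescence (Ex544/Em590).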

The target in assay [3] is T3, IDH1WT enzyme (Homo sapiens, UniProt O75874).
T3 construct: purchased not specified
Description: Enzymatic assay for IDH1 wild-type (NADPH forming assay). It is filed as biochemical. The protocol:
IDH1WT enzymatic activity converting isocitric acid to alpha-ketoglutarate is measured using a NADPH forming assay. In the assay the forming cofactor is measured in continuous with the addition of a catalytic excess of diaphorase and resazurin, to generate a fluorescent signal in proportion to the amount of NADPH forming.
Compounds were preincubated with the enzyme, then the reaction was started by the addition of NADP^+, isocitrate, diaphorase and a corresponding substrate, resazurin. Diaphorase reduces resazurin to the highly fluorescent resorufin with the concomitant oxidation of NADPH to NADP. Specifically, 0.2 uL of test compound, previously serially diluted 1 to 3, 10 experimental points from 1 mM in DMSO, was added to 0.016 nM IDH1WT enzyme in 10 μL of Assay Buffer (150 mM NaCl, 50 mM Tris-HCl pH 7.6, 10 mM MgCl2, 0.001% Triton X-100, 4 mM β-mercaptoethanol); the mixture is incubated for 15 minutes at room temperature. The reaction is started with the addition of 10 μL of Substrate Mix (400 μM NADP^+, 40 μM iso-citrate, 5 ugr/mL Diaphorase and 7 μM resazurin in Assay Buffer), the mixture is incubated at room temperature and the reaction is reading on a ViewLux as platereader at Ex544/Em590 in continuous.

In assay [4] the target is T4, IDH2^R172K (Homo sapiens, UniProt P48735, R172K).
T4 construct: purchased not specified
T4 sequence (P48735 40-452 R172K): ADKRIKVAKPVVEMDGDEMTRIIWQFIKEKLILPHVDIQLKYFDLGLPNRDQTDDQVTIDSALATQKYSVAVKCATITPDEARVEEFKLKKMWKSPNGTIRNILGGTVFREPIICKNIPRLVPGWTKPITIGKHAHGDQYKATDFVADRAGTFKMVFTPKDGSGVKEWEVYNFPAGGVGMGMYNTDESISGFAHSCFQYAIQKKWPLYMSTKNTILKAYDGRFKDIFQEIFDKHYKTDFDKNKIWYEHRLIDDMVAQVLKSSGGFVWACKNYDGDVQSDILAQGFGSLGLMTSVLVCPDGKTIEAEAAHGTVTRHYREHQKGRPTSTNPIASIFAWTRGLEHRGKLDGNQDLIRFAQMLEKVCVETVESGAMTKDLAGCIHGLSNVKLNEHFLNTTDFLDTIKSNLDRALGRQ
Briefly: NADPH depletion assay, IDH2 R172K. It counts as biochemical. In outline: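 IDH2 R172K (16 nM) was preincubated 15 min at RT with compound (1:3 series from 1 mM in DMSO) in Tris pH 7.6/NaCl/MgCl2/Triton/β-mercaptoethanol. The reaction ran 60 min at RT with 0.55 mM alpha-ketoglutarate and NADPH (12 μM in the substrate mix). Remaining NADPH was read with diaphorase/resazurin fluorescence at Ex544/Em590.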

The test system of assay [5] is HT-1080 (IDH1^R132C). Description: Cellular 2-HG production assay, HT-1080. It counts as cell-based. The following applies: Homo sapiens, HT-1080, 72 h, inhibition of 2HG production, 72 hr incubation, LC-MS/MS; read-out: HT1080 2-HG IC50. The protocol: Cell lines HT-1080 (commercially available) and U87-MG-IDH1^R132H (obtained in analoy to the procedure reported in J. Mol. Neurosci 2013, 50, 165-71) are maintained in E-MEM 10% FCS and incubated at 37° C. in a humidified 5% CO2 atmosphere. Stably transfected U87-MG cell lines are also supplemented with 500 μg/mL G418.
Cells are seeded into 96 well black flat bottom plates at a density of 500 cells/well in 100 μL complete medium. After 24 hr the medium is replaced with 200 uL of fresh medium and compounds (dissolved into DMSO) are administrated to the cells using D300E Digital Dispenser (Tecan).
After 72 hr of incubation 100 uL from each well are collected and used for 2HG (R(−)-2-hydroxyglutarate) quantification.
Levels of 2-HG in cell culture media are determined by LC-MS/MS. Cell supernatants (100 μL/well) are treated with 1 M aqueous trichloroacetic acid containing 130 μM of the internal standard 2-HG-d3 (20 μL/well) in a 96-well plate.
The plates are sealed, mildly vortexed for 60 minutes, centrifuged at 4,000 RPM for 15 minutes, placed in a refrigerated autosampler taking care not to shake them, and aliquots of the upper part of the samples are directly injected in the chromatographic system. Calibration standards are obtained by ten fold dilution of aqueous 2-HG stock solutions with blank cell culture medium and denatured exactly in the same way as described above for samples. Samples and standards are assayed for 2-HG by reversed phase chromatography on a C18 column eluted with aqueous 0.15% formic acid and briefly washed with 90% methanol at the end of the run. 2-HG is determined by negative ion electrospray ionization with the internal standard method on a triple quadrupole mass spectrometer monitoring the MRM transitions 147>129 (2-HG) and 150>132 (2-HG-d3). 2-HG inhibition was calculated by comparing treated versus control data using Assay Explore (Symyx) software, with IC50 determined using a sigmoidal fitting algorithm.

The subject of assay [6] is U87MG_IDH1R132H. Briefly: Cellular 2-HG production assay, U87-MG-IDH1 R132H. It is filed as cell-based. The following applies: inhibition of 2HG production, 72 hr incubation, LC-MS/MS. In outline: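 Cells in E-MEM/10% FCS (G418 500 μg/mL for the transfected U87-MG line) at 500 per well got compound 24 h after seeding and were incubated 72 h at 37 °C. Medium 2-HG was measured by LC-MS/MS with 2-HG-d3 internal standard; IC50 came from sigmoidal fitting versus controls.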

T1 sequence (O75874 whole entry R132H): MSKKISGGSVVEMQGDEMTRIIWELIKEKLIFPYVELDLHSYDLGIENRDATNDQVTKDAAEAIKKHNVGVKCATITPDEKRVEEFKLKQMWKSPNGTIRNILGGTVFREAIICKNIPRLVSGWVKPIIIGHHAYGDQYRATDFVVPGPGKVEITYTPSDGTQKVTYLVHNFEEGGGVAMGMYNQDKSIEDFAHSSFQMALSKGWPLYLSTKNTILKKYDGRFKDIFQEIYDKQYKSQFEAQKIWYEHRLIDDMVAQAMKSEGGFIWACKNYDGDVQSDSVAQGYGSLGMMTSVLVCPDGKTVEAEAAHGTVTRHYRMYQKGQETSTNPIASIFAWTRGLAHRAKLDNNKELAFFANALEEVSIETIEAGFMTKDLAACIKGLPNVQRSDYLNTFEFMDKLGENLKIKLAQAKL
T3 sequence (O75874 whole entry): as the sequence (O75874 whole entry R132H) above, with H132R counted along it
T2 sequence (O75874 whole entry R132C): as the sequence (O75874 whole entry R132H) above, with H132C counted along it

The term IC50 denotes the point on the concentration scale where inhibition reaches its midpoint. Regarding `C=C(C)C(=O)N1CCN(Cc2ccc([C@H](C)Nc3ncc4ccc(=O)n(CC(C)(C)C)c4n3)cc2)CC1` [cpd 144, 8-(2,2-dimethylpropyl)-2-{[(1S)-1-(4-{[4-(2-methylacryloyl)piperazin-1-yl]methyl}phenyl)ethyl]amino} pyrido [2,3-d]pyrimidin-7(8H)-one], the IC50 in assay [1] turned out to be 78 nM; in assay [2], 25 nM; in assay [3], 6800 nM.

In assay [3], `C=CC(=O)N1CCN(Cc2ccc([C@H](C)Nc3ncc4ccc(=O)n(C(C)C)c4n3)cn2)CC1` [cpd 213, 2-{[(1S)-1-{6-[(4-acryloylpiperazin-1-yl)methyl]pyridin-3-yl}ethyl]amino}-8-(propan-2-yl)pyrido[2,3-d]pyrimidin-7(8H)-one] yielded an IC50 of 4290 nM.

`C=CC(=O)N1CCN(C(CC)c2ccc(C3(Nc4ncc5ccc(=O)n(C(C)C)c5n4)CC3)cc2)CC1` (stereo not drawn) [cpd 247, 2-[(1-{4-[1-(4-acryloylpiperazin-1-yl)propyl]phenyl}cyclopropyl)amino]-8-(propan-2-yl)pyrido[2,3-d]pyrimidin-7(8H)-one]: the half-maximal inhibitory concentration (IC50) in assay [1] came out at 5 nM; in assay [2], 4 nM; in assay [4], 35 nM; in assay [3], 215 nM; in assay [5], 3 nM.

Take `C=CC(=O)N1CCN(C(CC)c2ccc([C@H](C)Nc3ncc4ccc(=O)n(C(C)C)c4n3)cc2)CC1` (stereo partly drawn) [cpd 187, 2-{[(1S)-1-{4-[1-(4-acryloylpiperazin-1-yl)propyl]phenyl}ethyl]amino}-8-(propan-2-yl)pyrido[2,3-d]pyrimidin-7(8H)-one]: the IC50 was 2 nM in assay [1]; 2 nM in assay [2]; 18 nM in assay [4]; 541 nM in assay [3]; below 1 nM in assay [5].

Turning to `C=CC(=O)N1CC=C(c2ccc([C@H](C)Nc3ncc4ccc(=O)n([C@@H](C)C(C)C)c4n3)cc2)CC1` [cpd 168, 2-({(1S)-1-[4-(1-acryloyl-1,2,3,6-tetrahydropyridin-4-yl)phenyl]ethyl}amino)-8-[(2S)-3-methylbutan-2-yl]pyrido [2,3-d]pyrimidin-7(8H)-one], the IC50 in assay [1] came to 29 nM; in assay [2], 16 nM; in assay [4] it was 137 nM; in assay [3] it was 758 nM.

For `C=CC(=O)N1CCN(Cc2ccc([C@H](C)Nc3ncc4ccc(=O)n(C(C)C)c4n3)cc2F)CC1` [cpd 183, 2-{[(1S)-1-{4-[(4-acryloylpiperazin-1-yl)methyl]-3-fluorophenyl}ethyl]amino}-8-(propan-2-yl)pyrido[2,3-d]pyrimidin-7(8H)-one], the IC50 in assay [1] was 52 nM; in assay [2], 39 nM; in assay [3], 899 nM; in assay [5], 21 nM.

Regarding `C[C@H](Nc1ncc2ccc(=O)n(CC(C)(C)C)c2n1)c1ccc(Oc2ccccc2)cc1` [cpd 49, 8-(2,2-dimethylpropyl)-2-{[(1S)-1-(4-phenoxyphenyl)ethyl]amino}pyrido[2,3-d]pyrimidin-7(8H)-one], the IC50 in assay [1] came to 118 nM; in assay [2] it was 67 nM; in assay [4], 4360 nM; in assay [6], 507 nM; in assay [5], 307 nM.

For the compound `C=CC(=O)N1CCN(c2ccc([C@H](C)Nc3ncc4ccc(=O)n([C@@H](C)C(C)C)c4n3)cn2)CC1` [cpd 181, 2-({(1S)-1-[6-(4-acryloylpiperazin-1-yl)pyridin-3-yl]ethyl}amino)-8-[(2S)-3-methylbutan-2-yl]pyrido[2,3-d]pyrimidin-7(8H)-one], the IC50 was 175 nM in assay [1], 351 nM in assay [2], 878 nM in assay [4] and 2140 nM in assay [3].

For the compound `C=CC(=O)N1CCN(Cc2ccc([C@H](C)Nc3ncc4ccc(=O)n([C@@H](C)C(F)(F)F)c4n3)cc2)CC1` [cpd 169, 2-{[(1S)-1-{4-[(4-acryloylpiperazin-1-yl)methyl]phenyl}ethyl]amino}-8-[(2S)-1,1,1-trifluoropropan-2-yl]pyrido [2,3-d]pyrimidin-7(8H)-one], the IC50 in assay [1] is 193 nM; in assay [2] it was 179 nM; in assay [4] it was 414 nM; in assay [3], 2850 nM.

As for `C=C(C)C(=O)N1CCN(Cc2ccc([C@H](C)Nc3ncc4ccc(=O)n([C@@H](C)C(C)C)c4n3)cc2)CC1` [cpd 162, 8-((S)-1,2-Dimethyl-propyl)-2-((S)-1-{4-[4-(2-methyl-acryloyl)-piperazin-1-ylmethyl]-phenyl}-ethylamino)-8H-pyrido[2,3-d]pyrimidin-7-one], the IC50 in assay [1] was 84 nM; in assay [2], 30 nM; in assay [3], 3900 nM.

Turning to `C=CC(=O)N1CCN(Cc2ccc([C@H](C)Nc3ncc4ccc(=O)n([C@@H](C)C(C)C)c4n3)cc2)CC1` [cpd 161, 2-{(S)-1-[4-(4-Acryloyl-piperazin-1-ylmethyl)-phenyl]-ethylamino}-8-((S)-1,2-dimethyl-propyl)-8H-pyrido[2,3-d]pyrimidin-7-one], the IC50 in assay [1] was 22 nM; in assay [2] it was 13 nM; in assay [4] it was 299 nM; in assay [3], 908 nM.

Regarding `CC(C)n1c(=O)ccc2cnc(N[C@@H](C)c3ccc(CN4CCCC(F)(F)C4)cc3)nc21` [cpd 170, 2-{[(1S)-1-{4-[(3,3-difluoropiperidin-1-yl)methyl]phenyl}ethyl]amino}-8-(propan-2-yl)pyrido[2,3-d]pyrimidin-7(8H)-one], the IC50 came to 167 nM in assay [1]; 90 nM in assay [2]; 3110 nM in assay [4]; 637 nM in assay [6]; 442 nM in assay [5].

`C=CC(=O)N1CCN(Cc2ccc([C@H](C)Nc3ncc4ccc(=O)n(CC)c4n3)cc2)CC1` [cpd 186, 2-{[(1S)-1-{4-[(4-acryloylpiperazin-1-yl)methyl]phenyl}ethyl]amino}-8-ethylpyrido[2,3-d]pyrimidin-7(8H)-one]: the IC50 in assay [1] turned out to be 392 nM; in assay [2], 811 nM; in assay [4], 431 nM; in assay [3], 5460 nM.
